# According to patent US9090897B2, “Production of IFN-lambda by conventional dendritic cells” (Bavarian Nordic A/S, priority 2009, dated 2015):
# Entries after “also recorded” stand apart in the source; their conditions may differ.
# What was measured:
# splenic CD8+ cDC = assay: In vitro stimulation of sorted splenic CD8+ cDCs, cytokines in supernatant (IFN-λ ELISA, IL-12p70 FlowCytomix); format: cell-based, mouse; conditions: 5×10^5/ml, IL-3 and GM-CSF, supernatants after 18 h
# Source text: (§1) DC subsets were isolated from pooled mouse spleens as described (Vremec et al., 2007). Briefly, spleens were chopped, digested with collagenase (Worthington Biochemical) and DNase (Roche) at room temperature, and treated with EDTA. Low-density cells were enriched by density centrifugation; non-DC lineage cells were coated with mAbs (anti-CD3, KT3-1.1; anti-Thy-1, T24/31.7; anti Gr-1, 1A8; anti-CD19, ID3; anti-erythrocytes, TER119 and anti-NK cells, DX5) and depleted using anti-rat Ig magnetic beads (Qiagen). Dead cells were excluded by propidium iodide staining. cDC populations were sorted based on the expression of CD11c, CD45RA, CD4, CD8a and CD172a and pDCs were purified based on CD11c, CD45RA, and CD172a (all BD Biosciences) expression. Cell sorting was performed on a FACS Aria instrument (BD Biosciences).
# (§2) Cells were stimulated in vitro with single TLR agonists or combinations thereof containing 10 μg/ml Pam3Cys (InvivoGen), 100 μg/ml poly IC (Axxora), 10 μg/ml LPS (E. coli; Sigma-Aldrich or Axxora), 10 μg/ml R848 (Axxora), 1 μM CpG-1668 or CpG-2216 (TIB-Molbiol), 1 μg/ml profilin of toxoplasma (Axxora). The recombinant cytokines mouse-IL-3, mouse-IL-4, rat-IFN-γ (PeproTech) and mouse-GM-CSF (Tebu-Bio) (10 ng/ml each) were added as indicated. The addition of IL-3 and GM-CSF was based on previous observations that GM-CSF promoted the production of IL-12p70 and that the combination of IL-3 and GM-CSF increased virus induced IFN-λ production in pDCs and cDCs (Hochrein et al., 2000; Hochrein et al., 2004). As source of a parapoxvirus Zylexis, which is used for veterinary purposes was purchased from a pharmacy. HSV-1, in replication deficient form known as disc HSV-1 (HSV-1d) was used as described (Hochrein et al., 2004). IFN-λ in supernatants was analyzed by ELISA and IL-12p70 was determined by FlowCytomix bead assay (Bender Medsystems) according to manufacturer's protocol.
# CD8-cDCs = assay: In vitro stimulation of sorted splenic CD8- cDCs, IFN-λ ELISA; format: cell-based, mouse; conditions: 5×10^5/ml, IL-3 and GM-CSF, 18 h
# Source text: as §1
# (§3) Cells were stimulated in vitro with single TLR agonists or combinations thereof containing 10 μg/ml Pam3Cys (InvivoGen), 100 μg/ml poly IC (Axxora), 10 μg/ml LPS (E. coli; Sigma-Aldrich or Axxora), 10 μg/ml R848 (Axxora), 1 μM CpG-1668 or CpG-2216 (TIB-Molbiol), 1 μg/ml profilin of toxoplasma (Axxora). […] IFN-λ in supernatants was analyzed by ELISA and IL-12p70 was determined by FlowCytomix bead assay (Bender Medsystems) according to manufacturer's protocol.
# mice = assay: In vivo challenge (i.v.), serum IFN-λ and IFN-α by ELISA; design: species or system mouse; conditions: 100 μg i.v.
# Protocol: Mice were injected i.v. into the lateral tail vein with 100 μg poly IC (Axxora) and serum was collected 3-4 h after challenge. Sera were pre-diluted 1/5, […] was analyzed by ELISA as described (Hochrein et al., 2004). IFN-λ was determined by an IFN-λ3 (IL-28B) ELISA (R&D Systems).
# FLDC-derived eCD8+ cDCs = assay: In vitro stimulation of sorted FLDC-derived eCD8+ cDCs, IFN-λ ELISA; format: cell-based, mouse
# Protocol: FL bone marrow culture derived dendritic cells (FLDC) were prepared as described (Hochrein et al., 2004). pDCs and eCD8+ and eCD8^− cDC subsets were sorted based on the expression of CD11c, CD45R, CD11b, CD24, and CD172a or CD103 (all BD Biosciences).
# as §2
# splenic pDCs = assay: In vitro stimulation of sorted splenic pDCs, IFN-λ ELISA; format: cell-based, mouse; conditions: 5×10^5/ml, IL-3 and GM-CSF, 18 h
# Source text: as §1, §3
substance,measurement,setting,value
Polyinosinic:polycytidylic acid [poly IC],IFN-λ production,splenic CD8+ cDC,major producers; also recorded: induced IFN-λ
same,IL-12p70 production,splenic CD8+ cDC,not IL-12p70 production
same,IFN-λ production,CD8-cDCs,largely unable to participate in IFN-λ production
same,"serum IFN-λ, dependence on hematopoietic cells, FL and IRF8","mice; BM reconstituted, IL-15R-KO, RAG1-KO, FL-KO, IRF8-KO vs WT mice (FIG. 16), 3-4 h","depends on hematopoietic cells, FL and IRF8"
same,Serum levels of IFN-λ,"mice; FL-KO mice, 3-4 h",almost abrogated
same,serum IFN-λ,"mice; IRF7-KO mice, 3-4 h",largely reduced
same,serum IFN-λ,"mice; TLR3-KO mice, 3-4 h",abrogated IFN-λ production
same,Serum levels of IFN-λ,"mice; WT mice, sera after 3-4 h",easily detectable; also recorded: Large amounts
same,"serum IFN-λ, dependence on IRF3 and IRF7","mice; mice of indicated genotype (FIG. 15), 3-4 h",depends on IRF3 and IRF7
same,IFN-λ production,"FLDC-derived eCD8+ cDCs; WT eCD8+ cDCs, 18 h",produced IFN-λ
same,"IFN-λ production, dependence on Cardif, MyD88, TLR3","FLDC-derived eCD8+ cDCs; eCD8+ cDCs generated from Cardif-, MyD88- or TLR3-KO mice",involvement of TLR3 but not Cardif or MyD88
same,IFN-λ production,splenic pDCs,largely unable to participate in IFN-λ production
